Reference: patent US20240262808A1, “XANTHINE OXIDASE INHIBITOR” (JIANGSU ATOM BIOSCIENCE AND PHARMACEUTICAL CO., LTD., priority 2021, published 2024)

How the values were obtained:
[1] = test system: rats with hyperuricemia induced by potassium oxonate; experiment: Treatment of hyperuricemia in rats induced by potassium oxonate, serum uric acid; assay type: in vivo, SD rat; conditions: for Uric acid 1 h: 1 h after potassium oxonate; for Uric acid 3 h: 3 h after potassium oxonate; for Uric acid 5 h: 5 h after potassium oxonate; for Uric acid 0 h: before potassium oxonate injection
Description: Compounds 15, 24 and 38 were white powder, and compound 57 was light yellow powder, which was ground with 0.5% CMC-Na before use and prepared into suspension with corresponding concentrations (0.2 and 0.4 mg/mL) for gavage.
SD rat, SPF grade, male, weighing 180-220 g, purchased from Shanghai Slake Experimental Animal Co., Ltd., production license number: SCXK (Hu) 2017-0005, quality certificate number: 20170005050604.
72 SD rats, male, weighed about 200-230 g after one week of acclimatization. […] Drugs for each group were prepared into suspension with corresponding concentration, and the administration volume was 0.5 mL/100 g.
After purchased and fed for acclimatization, the rats in each group were fasted for 12 h, and the model was established by intraperitoneal injection with potassium oxonate at the dose of 300 mg/kg, and each of the test drug groups were administrated once by gavage after model establishment. Blood samples were collected from posterior orbital venous plexus before and 1, 3 and 5 h after potassium oxonate injection, centrifugated at 3500 rpm for 10 min, and 30 μL serum was taken to determine uric acid levels at each time point.
Then in two consecutive days, rat models were established with potassium oxonate by intraperitoneal injection at a dose of 300 mg/kg every day, and each test drug group was administrated once by gavage after model establishment. On the third day of administration, the rats were fasted for 12 h, and with the same test method on the first day, blood samples were collected from the posterior orbital venous plexus before and 1, 3 and 5 h after potassium oxonate injection, centrifuged at 3500 rpm for 10 min, and 30 μL serum was taken to determine the uric acid level at each time point.
The measurement data of each experiment were expressed as (mean)±s (standard deviation). ANOVA-Dunnett T test was used to investigate the significance between groups, and P<0.05 was used as a significant index, P<0.01 was used as a very significant index.

Xanthine Oxidase (XO) = biological target: T1, Xanthine Oxidase (XO) (Bos taurus, UniProt P80457); experiment: Xanthine oxidase activity inhibition test (XO/HRP double enzyme coupling, Ampliflu Red fluorescence); assay type: biochemical; conditions: 30 min preincubation and 30 min reaction at 30° C., pH 7.5; read-out: Xanthine oxidase inhibitor activity IC50
T1 construct: purchased Sigma-Aldrich Co., LLC
T1 sequence (P80457 2-1332 limits assumed): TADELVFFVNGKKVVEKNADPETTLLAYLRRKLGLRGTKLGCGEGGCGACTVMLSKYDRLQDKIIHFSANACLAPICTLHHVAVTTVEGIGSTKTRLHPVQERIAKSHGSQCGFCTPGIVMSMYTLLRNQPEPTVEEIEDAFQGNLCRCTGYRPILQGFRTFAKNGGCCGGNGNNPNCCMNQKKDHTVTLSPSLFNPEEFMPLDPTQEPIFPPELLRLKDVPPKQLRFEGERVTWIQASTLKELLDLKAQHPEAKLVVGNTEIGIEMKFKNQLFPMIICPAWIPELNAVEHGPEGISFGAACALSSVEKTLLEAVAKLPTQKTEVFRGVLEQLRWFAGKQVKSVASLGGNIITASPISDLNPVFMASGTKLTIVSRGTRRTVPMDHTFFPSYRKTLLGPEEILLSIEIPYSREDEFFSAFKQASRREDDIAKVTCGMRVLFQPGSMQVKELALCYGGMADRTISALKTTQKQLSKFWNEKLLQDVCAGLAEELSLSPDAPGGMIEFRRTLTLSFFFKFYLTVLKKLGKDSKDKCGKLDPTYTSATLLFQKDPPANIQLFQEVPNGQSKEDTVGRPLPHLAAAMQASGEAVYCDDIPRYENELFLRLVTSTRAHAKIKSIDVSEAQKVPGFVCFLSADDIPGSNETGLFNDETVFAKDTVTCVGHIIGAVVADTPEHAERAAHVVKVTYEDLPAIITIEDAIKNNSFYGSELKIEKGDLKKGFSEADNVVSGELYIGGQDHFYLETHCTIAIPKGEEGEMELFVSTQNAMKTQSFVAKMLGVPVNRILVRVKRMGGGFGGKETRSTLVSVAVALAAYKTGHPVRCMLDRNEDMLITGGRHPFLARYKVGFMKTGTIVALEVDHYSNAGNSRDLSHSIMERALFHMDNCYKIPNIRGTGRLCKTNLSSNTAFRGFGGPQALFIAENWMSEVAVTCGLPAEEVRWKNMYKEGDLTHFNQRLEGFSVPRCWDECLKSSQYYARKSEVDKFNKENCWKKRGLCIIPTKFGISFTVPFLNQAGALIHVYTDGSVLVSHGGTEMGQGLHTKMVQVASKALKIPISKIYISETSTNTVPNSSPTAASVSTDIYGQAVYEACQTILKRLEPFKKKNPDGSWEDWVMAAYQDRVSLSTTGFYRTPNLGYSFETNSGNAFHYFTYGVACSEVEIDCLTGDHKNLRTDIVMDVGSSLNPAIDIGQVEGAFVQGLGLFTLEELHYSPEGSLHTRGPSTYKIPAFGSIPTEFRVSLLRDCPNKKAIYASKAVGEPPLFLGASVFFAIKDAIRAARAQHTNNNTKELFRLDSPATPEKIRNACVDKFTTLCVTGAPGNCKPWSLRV
Description: A double enzyme coupling reaction of Xanthine Oxidase (XO) and Horseradish Peroxidase (HRP) and their substrates was used to test the activity inhibition of xanthine oxidase. First, xanthine oxidase oxidized hypoxanthine to produce xanthine and hydrogen peroxide, and further oxidized xanthine to produce uric acid and hydrogen peroxide. […] The fluorescence intensity of resorufin was determined by fluorescence enzyme spectrometer in direct proportion to xanthine oxidase activity.
In 96-well polypropylene reaction plate, the test compound was diluted into a 200-fold concentration of solution with DMSO through 2.5-fold serial dilution, and further diluted in ultra-pure water to obtain a series of 3-fold concentration of diluted solution.
Reaction solution A: 6 mU/mL xanthine oxidase solution was prepared in 0.1M Tris-HCl (pH7.5) buffer solution.
Reaction solution B: a mixture of 0.6 U/mL horseradish peroxidase solution, 0.15 mM Ampliflu Red and 0.3 mM hypoxanthine in 0.1M Tris-HCl (pH 7.5) buffer solution. The solution was protected from light at 4° C. and was prepared when it was ready for use.
9 μL reaction solution A was mixed with 3-fold concentration serial dilution solution of 9 μL test compound in a 96-well test plate, placed on a flat plate oscillator, and mixed at 30° C. at 100 rpm for 30 min. Then 9 μL reaction solution B was added. The enzyme reaction was carried out at 30° C. for 30 minutes. The fluorescence intensity at excitation light 530 nm and emission light 590 nm was measured by a microplate reader. The fluorescence intensity of the control without xanthine oxidase was 0%, and that of the control without the test compound was 100%.

[2] = 1-day administration, 1 mg/kg gavage
[3] = 1-day administration, 2 mg/kg gavage
[4] = 3-day administration, 1 mg/kg gavage
[5] = 3-day administration, 2 mg/kg gavage
[6] = 1-day administration, 1 and 2 mg/kg groups, at 1, 3 and 5 h after model establishment

Row | SMILES | Uric acid 1 h [1, 2] [µmol/L] | Uric acid 3 h [1, 2] [µmol/L] | Uric acid 5 h [1, 2] [µmol/L] | Uric acid 0 h [1, 2] [µmol/L] | Uric acid 1 h [1, 3] [µmol/L] | Uric acid 3 h [1, 3] [µmol/L] | Uric acid 5 h [1, 3] [µmol/L] | Uric acid 0 h [1, 3] [µmol/L] | Uric acid 1 h [1, 4] [µmol/L] | Uric acid 3 h [1, 4] [µmol/L] | Uric acid 5 h [1, 4] [µmol/L] | Uric acid 0 h [1, 4] [µmol/L] | Uric acid 1 h [1, 5] [µmol/L] | Uric acid 3 h [1, 5] [µmol/L] | Uric acid 5 h [1, 5] [µmol/L] | Uric acid 0 h [1, 5] [µmol/L] | IC50 (Xanthine Oxidase (XO)) [nM] | further results
1 | CC(C)n1cc(C#N)c2cc(-n3ncc(C(=O)O)n3)ccc21 [Compound 15, 2-(3-cyano-1-isopropyl-1H-indole-5-yl)-2H-1,2,3-triazole-4-formic acid] | 104.3 ± 20.3 | 121.6 ± 12.2 | 118.4 ± 15.3 | 72.0 ± 6.7 | 98.1 ± 6.3 | 130.7 ± 11.5 | 109.7 ± 22.5 | 74.1 ± 10.3 | 78.4 ± 12.1 | 166.1 ± 37.5 | 100.0 ± 12.5 | 70.9 ± 12.8 | 88.2 ± 21.3 | 139.8 ± 32.7 | 97.6 ± 21.0 | 64.1 ± 4.8 | 1.84 | Serum uric acid level compared with model group ([1]; 1-day administration, 2 mg/kg group, at 1 h after model establishment, P<0.01): significantly decreased
2 | CC(C)n1nc(C#N)c2cc(-n3ncc(C(=O)O)n3)ccc21 [Compound 24, 2-(3-cyano-1-isopropyl-1H-indazole-5-yl)-2H-1,2,3-triazole-4-formic acid] | 96.2 ± 9.3 | 131.0 ± 18.9 | 96.8 ± 13.6 | 65.3 ± 5.8 | 96.8 ± 5.4 | 126.4 ± 14.4 | 105.1 ± 16.6 | 77.6 ± 9.2 | 105.5 ± 12.7 | 155.3 ± 38.2 | 102.6 ± 8.3 | 87.8 ± 16.2 | 97.2 ± 27.5 | 104.0 ± 5.8 | 97.0 ± 14.6 | 90.4 ± 9.1 | 3.65 | Serum uric acid level compared with model group ([1]; 1-day administration, 1 and 2 mg/kg groups, at 1 h after model establishment, P<0.01): significantly decreased; Serum uric acid level compared with model group ([1]; 3-day administration, 2 mg/kg group, at 3 h after model establishment, P<0.01): significantly decreased
3 | CC(C)n1nc(C#N)c2cc(-c3ccc(C(=O)O)s3)ccc21 [Compound 28, 2-(3-cyano-1-isopropyl-1H-indazole-5-yl)thiophen-2-formic acid] |  |  |  |  |  |  |  |  |  |  |  |  |  |  |  |  | 7.91 | 
4 | CC(C)Cn1nc(C#N)c2cc(-n3cc(C(=O)O)cn3)ccc21 [Compound 32, 1-(3-cyano-1-isobutyl-1H-indazole-5-yl)-1H-pyrazole-4-formic acid] |  |  |  |  |  |  |  |  |  |  |  |  |  |  |  |  | 5.11 | 
5 | CCCn1nc(C#N)c2cc(-n3cc(C(=O)O)cn3)ccc21 [Compound 35, 1-(3-cyano-1-propyl-1H-indazole-5-yl)-1H-pyrazole-4-formic acid] |  |  |  |  |  |  |  |  |  |  |  |  |  |  |  |  | 11.8 | 
6 | CC(C)n1nc(C#N)c2cc(-n3cc(C(=O)O)cn3)ccc21 [Compound 38, 1-(3-cyano-1-isopropyl-1H-indazole-5-yl)-1H-pyrazole-4-formic acid] | 70.6 ± 7.7 | 74.6 ± 19.6 | 64.3 ± 10.6 | 75.6 ± 6.8 | 66.5 ± 7.5 | 77.4 ± 9.2 | 56.8 ± 4.0 | 73.1 ± 6.7 | 62.1 ± 14.1 | 69.4 ± 16.1 | 55.1 ± 5.8 | 61.0 ± 5.7 | 54.4 ± 5.1 | 73.1 ± 9.4 | 58.1 ± 9.6 | 60.9 ± 8.1 | 3.24 | Serum uric acid level compared with model group [1, 6]: significantly decreased; Serum uric acid level compared with model group ([1]; 3-day administration, 1 and 2 mg/kg groups, at 1, 3 and 5 h after model establishment): significantly decreased
7 | N#Cc1cn(CC2CC2)c2ccc(-n3ncc(C(=O)O)n3)cc12 [Compound 41, 2-(3-cyano-1-cyclopropylmethyl-1H-indole-5-yl)-2H-1,2,3-triazole-4-formic acid] |  |  |  |  |  |  |  |  |  |  |  |  |  |  |  |  | 1.72 | 
8 | N#Cc1cn(C2CCOC2)c2ccc(-n3ncc(C(=O)O)n3)cc12 (stereo not shown) [Compound 44, 2-[3-cyano-1-(tetrahydrofuran-3-yl)-1H-indole-5-yl]-2H-1,2,3-triazole-4-formic acid] |  |  |  |  |  |  |  |  |  |  |  |  |  |  |  |  | 9.58 | 
9 | N#Cc1cn(C2CCC2)c2ccc(-n3ncc(C(=O)O)n3)cc12 [Compound 47, 2-(3-cyano-1-cyclobutyl-1H-indole-5-yl)-2H-1,2,3-triazole-4-formic acid] |  |  |  |  |  |  |  |  |  |  |  |  |  |  |  |  | 1.71 | 
10 | N#Cc1nn(C2CC2)c2ccc(-n3cc(C(=O)O)cn3)cc12 [Compound 50, 1-(3-cyano-1-cyclopropyl-1H-indazole-5-yl)-1H-pyrazole-4-formic acid] |  |  |  |  |  |  |  |  |  |  |  |  |  |  |  |  | 9.89 | 
11 | CC(C)n1nc(C#N)c2cc(-c3cc(C(=O)O)ccn3)ccc21 [Compound 57, 2-(3-cyano-1-isopropyl-1H-indazole-5-yl) isonicotinic acid] | 74.7 ± 11.3 | 99.5 ± 12.4 | 85.7 ± 8.5 | 71.2 ± 8.3 | 64.0 ± 13.5 | 107.4 ± 12.5 | 94.8 ± 6.4 | 74.5 ± 8.9 | 57.5 ± 9.3 | 75.3 ± 6.3 | 90.0 ± 5.9 | 70.8 ± 8.6 | 63.6 ± 11.7 | 75.2 ± 16.9 | 81.1 ± 8.0 | 72.7 ± 15.6 | 2.89 | Serum uric acid level compared with model group [1, 6]: significantly decreased; Serum uric acid level compared with model group ([1]; 3-day administration, 1 and 2 mg/kg groups, at 1 and 3 h after model establishment, P<0.01): significantly decreased
